Literature values in patent US8222245B2, “Oxadiazole derivatives active on sphingosine-1-phosphate (S1P)” (Glaxo Group Limited, priority 2007, dated 2012).

Columns and labels:
[1] = tested on: circulating lymphocytes; details: animals and man
[2] = clinical studies, first 24 hours of treatment

SMILES: CCCCCCCCc1ccc(CCC(N)(CO)CO)cc1 [FTY720]
- effect on circulating lymphocytes [1]: reduce circulating lymphocytes in animals and man
- bradycardia on treatment [2]: bradycardia in the first 24 hours of treatment
